Source: PMC11999338, “Factor XI localization in human deep venous thrombus and function of activated factor XI on venous thrombus formation and hemostasis” (Research and Practice in Thrombosis and Haemostasis, 2025)
“Also recorded” adds a separate entry of the source.

System: jugular vein thrombus
Assay: Stasis-induced thrombus formation in rabbit jugular veins
Format: in vivo
Details: rabbits, oral ONO-1600586 50 mg/kg or rivaroxaban 15 mg/kg 60 minutes before stasis, 6 hours stasis
Method: The protocols of venous thrombosis by stasis were as follows (Supplementary Figure 4). First, fasting rabbits were orally administered a solvent as a control (n = 8), a FXIa inhibitor (ONO-1600586, 50 mg/kg, n = 8), or a FXa inhibitor (rivaroxaban, 15 mg/kg, n = 8) using a Nelaton catheter of 5 mm diameter (IZUMO Health Co, Ltd) 60 minutes before thrombus formation. The process of thrombus formation was performed under general anesthesia through the subcutaneous injection of a mixture of medetomidine hydrochloride (0.08 mg/kg body weight), butorphanol tartrate (0.2 mg/kg), and midazolam (0.4 mg/kg). Briefly, 60 minutes postadministration of the solvent, ONO-1600586, or rivaroxaban, venous thrombi were induced in rabbit jugular veins by ligations and luminal stenosis. To induce luminal stenosis, a 1 mm polyethylene tube was placed outside the vessel. Both the jugular vein and polyethylene tube were ligated 4 cm upstream of the ligature, and the tube was removed (Supplementary Figure 5). Next, 6 hours after stasis in the jugular vein, the rabbits were infused with heparin (500 U/kg, i.v.). They were then euthanized with an overdose of pentobarbital (60 mg/kg, i.v.), and the jugular veins were sampled. In this model, the animals were not perfused with phosphate-buffered saline because the thrombi were fragile. The venous thrombi were immediately removed from the venous wall and weighed.

## O=C(NC[C@H]1CN(c2ccc(N3CCOCC3=O)cc2)C(=O)O1)c1ccc(Cl)s1 [rivaroxaban]
  stasis-induced venous thrombus weight compared with control: significantly reduced; also recorded: similarly reduced
